Results: patent US20250034520A1, “INCREASING DEVELOPMENTAL POTENTIAL OF HUMAN PREIMPLANTATION EMBRYOS BY REDUCING GENETIC INSTABILITY, ANEUPLOIDIES AND CHROMOSOMAL MOSAICISM” (THE TRUSTEES OF COLUMBIA UNIVERSITY IN THE CITY OF NEW YORK, priority 2022, published 2025)

Legend:
human embryos [1] = experiment: nucleation and development of human embryos; assay type: cell-based
Excerpt: Cryopreserved human cleavage-stage and blastocyst embryos and unfertilized oocytes were anonymously donated from individuals and couples who provided consent for use in research. Embryos were of good quality and had been cryopreserved for potential clinical use but were then no longer needed and donated for research. The cause of treatment is not disclosed. Range of maternal age of donated embryos is between 27-43. Embryos of both sexes were used, as provided by the unbiased fertilization of oocytes with sperm carrying either a Y or X chromosome. Cleavage stage embryos were thawed using the one-step thaw protocol using Global total with HEPES. Blastocyst stage embryos were thawed using the Quinn's Advantage thaw kit, then exposed to experimental conditions as outlined below. Vitrified embryos were thawed with the ECMPC warming solution set. Embryo culture was performed in Global Total. All experiments were conducted during incubation at 37° C. with 5% CO2 and 20% 02.
(§1) Embryos, mouse and human, were cultured in Global Total (Life-Global) for the duration of the experiments and with added compounds as outlined below. Incubation in RNA polymerase inhibitors triptolide (1 mM) or alpha amanitin (20 mg/ml) was performed from the 2PN stage (day1) to day3 of human development. Incubation in aphidicolin was performed at 2 mM. […] Mirin was used at a concentration of 50 mM. Olaparib was used to inhibit PARP at a concentration of 10 mM. All experiments were conducted during incubation at 37° C. with 5% CO2 and 19-20% O2. Chemical stock solutions were prepared in DMSO at concentrations at least 1000× higher than the final concentration.
Following the experimental exposures, mouse and human embryos were fixed in 2% paraformaldehyde (PFA) and 0.25% Triton X-100 in PBS for 10 minutes at room temperature, serially washed in phosphate-buffered solution (PBS) at room temperature, then stored in PBS at 4° C. until staining and imaging. Embryos were placed in 10-20 ml droplets of primary antibody solution within plastic tissue culture dishes covered with mineral oil for 1 hour at room temperature, serially washed (×2) in PBS containing 0.01% Triton X-100 to prevent embryos sticking to oil, then transferred to 10-20 ml secondary antibody solution and Hoechst (dilution 1:500) for 30 minutes. Embryos were then serially washed (×2) and placed in 5 ml droplets of PBS with 0.5% serum albumin in uncoated glass bottom dishes (Mattek) covered with embryo culture oil for imaging. […]
Embryos were imaged with confocal microscopy using a Zeiss LSM (LSM 710) at a magnification of 63× and the Zeiss Zen software. […] Cell numbers and staining foci numbers were counted manually. […]

human embryos [2] = experiment: single-cell/single-nuclei sequencing chromosome content analysis, human embryos; assay type: cell-based
Description: as §1
Single cells from blastomeres were collected on the heated stage (Tokai Hit) of an Olympus IX71 inverted microscope equipped with Narishige micromanipulators and a zona pellucida laser (Hamilton-Thorne). Single nuclei were isolated from blastomeres by lysis and dissection of different nuclei using two […] diameter Piezo micropipettes and Holding pipette (Origio). Single embryo cells or nuclei were placed manually in single wells of a 96-well plate containing 9 ml of lysis buffer, prepared as a master mix of 798 ml H2O, 6 ml of 10 mg/mL Proteinase K solution (Sigma-Aldrich), and 96 ml 10× Single Cell Lysis and Fragmentation buffer (Sigma-Aldrich). Single cells/single nuclei were lysed by heating 96-well plates containing single cells/single nuclei at 50° C. for 1 hour, followed by incubation at 99° C. for four minutes using a PCR thermocycler. Single-cell/single-nuclei whole genome amplification (WGA) using degenerate oligo-nucleotide priming PCR (DOP-PCR) was performed using the SEQPLEX Enhanced DNA Amplification Kit (SEQXE, Sigma) according to the manufacturer's instructions. In addition, a modified version of the DOP-PCR protocol that allows inline indexing of WGA DNA was also applied. WGA DNA was subsequently processed for Illumina library sequencing preparation using standard TruSeq indexing methods via the NEBNext Ultra II DNA Library Prep Kit for Illumina (New England Biolabs). NEBNext Multiplex Oligos for Illumina (96 index primers) were used for four amplification cycles. Library DNA was quantified using Qubit dsDNA HS Assay Kit (Invitrogen, Carlsbad, CA, USA) and library size distribution was confirmed using a 2100 Bioanalyzer DNA 1000 Kit (Agilent, Santa Clara, CA, USA). A unimodal curve centered around 300-500 bp was scored as a successful library preparation. Subsequently, 30 mL of each pooled library was sent for sequencing at a concentration of 20 ng/ml. Mutiplex sequencing was performed using Illumina HiSeq 2500 single end indexed run (SR100) while targeting a coverage of approximately 1 million reads per cell/nuclei, sufficient for quantitative genome-wide copy number analysis.
Analysis of DNA sequencing data was performed as previously described (Baslan et al., 2015) with minor modifications as outlined below. Briefly, multiplex sequencing data were demultiplexed according to unique barcodes with reads assigned to their respective single-cell or single-nuclei. Unique reads were aligned to the reference human and mouse genome builds, hg19 and mm9, respectively. Each genome was partitioned into 5000 bins using a previously described algorithm (Varbin) that corrects for genome sequence mappability (Baslan et al., 2012; Navin et al., 2011). Uniquely mapped reads were sorted, indexed and subsequently counted within the partitioned genomic bins. For single-cell copy number inference, read count data were normalized genome-wide followed by CBS segmentation (Olshen et al., 2004) and transformed into integer copy number states using a least-squares fit approach (Baslan et al., 2015).
Copy number inference from single-nuclei sequencing data was performed similarly with the exception that bin read counts were initially processed using Kernel Density Estimation (KDE) resulting in two primary densities. […]

[3] = aphidicolin and G2 checkpoint kinase inhibitor at 15.5 h

## C[C@@]1(CO)[C@H](O)CC[C@@]2(C)[C@H]1CC[C@H]1C[C@@H]3C[C@@]12CC[C@]3(O)CO [aphidicolin]
Human embryos [1]; 6 parthenogenetically activated embryos, aphidicolin and G2 checkpoint kinase inhibitor at 15.5 h
  formation of multinucleate cells: uniformly resulting in the formation of multinucleate cells
Human embryos [1]; aphidicolin-treated human parthenotes
  failure to polarize chromosomes in the nucleus: 16/17
Human embryos [2]; 4 2PN zygotes, aphidicolin and CHK1 inhibitor at 18 h post ICSI
  chromosomal breaks identified: 7
Human embryos [2]; addition of aphidicolin to CHK1 inhibition in G2 phase
  aneuploidy: further amplified
Human embryos [2]; [3]
  chromosomes with one or more segmental copy-number transitions, share: 27%
  independent break points per embryo, average: 51
  whole-chromosome losses, share of aneuploid chromosomes in micronuclei: 73%
Human embryos [2]; aphidicolin and G2 checkpoint kinase inhibitor at 15.5 h, 21 micronuclei from 4 zygotes
  total break sites: 331
Human embryos [2]; combined aphidicolin exposure and G2 checkpoint inhibition
  human embryos aneuploid: all
